This is an account of results in patent publication US6833380B2, “Compounds that modulate PPAR activity and methods of preparation” (Warner-Lambert Company, LLC, priority 2002, dated 2004).

The target in one series is T1, hPPARβ chimeric receptor (Homo sapiens, UniProt Q03181).
T1 construct: "expression plasmids encoding hPPARα, hPPARβ or mPPARγ chimeric receptors"
T1 sequence (Q03181 171-441 limits assumed): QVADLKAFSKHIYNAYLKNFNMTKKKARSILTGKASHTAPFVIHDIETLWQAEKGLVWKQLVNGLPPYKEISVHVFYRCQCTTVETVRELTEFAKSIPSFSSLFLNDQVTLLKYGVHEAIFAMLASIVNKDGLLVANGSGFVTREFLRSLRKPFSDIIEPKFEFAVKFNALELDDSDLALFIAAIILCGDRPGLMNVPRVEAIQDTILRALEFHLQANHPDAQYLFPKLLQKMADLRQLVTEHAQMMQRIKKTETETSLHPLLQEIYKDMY
The series can be described thus: Transient transfections assay using the HepG2 hepatoma cell line (Gal4-PPAR chimeric receptor, luciferase reporter), hPPARβ. It counts as cell-based. The following applies: HepG2 cells transiently transfected, 24 hours incubation, read-out: Hep G2-hβ EC50. On the procedure:
(§1) 1. Test A. Transient Transfections Assay using the HepG2 Hepatoma Cell Line.
(§2) HepG2 cells were transiently transfected with an expression plasmids encoding hPPARα, hPPARβ or mPPARγ chimeric receptors and a reporter containing the yeast upstream activating sequence (UAS) upstream of the viral E1B promoter controlling a luciferase reporter gene. In addition, the plasmid pRSVβ-gal was used to control for transfection efficiency. HepG2 cells were grown in DMEM supplemented with 10% FBS and […] non-essential amino acid. On the first day, cells were split into 100 mm dishes at 2.5×10^6/dish and incubated overnight at 37° C./5% CO2. On the second day the cells were transiently transfected with plasmid DNA encoding a chimeric receptor, the luciferase reporter gene; and β-gal. For each 100 mm dish, 15 μg of lucifease reporter (PG5E1b) DNA, 15 μg of Gal4-PPAR chimeric receptor DNA, and 1.5 μg of β-gal plasmid DNA were mixed with 1.4 ml of opti-MEM in the tube. 28 μl of LipoFectamine-2000 reagent was added to 1.4 ml of opti-MEM in the tube, and incubate for 5 min at RT. The diluted Lipofectamine-2000 reagent was combined with the DNA mixture, and incubate for 20 min at RT. After fresh medium was added to each 100 mm dish of cells, 2.8 ml of Lipofectamine2000-DNA mixture was added dropwise to the 100 mm dish containing 14 ml of medium, and incubate 37° C. overnight. On day three cells were trypsinized off the 100 mm dishes and re-plated on 96 well plates. Cells were plated at 2.5×10^4 cells per well in 150 μl of media and 50 μl of compound diluted by media was added. The test compound added were in the range from 50 μM to 50 pM. After addition of compounds, the plates were incubated at 37° C. for 24 hours. Subsequently cells were washed with once with 100 μl of PBS, lysed, and processed for measuring luciferase and β-gal activity using Dual-Light luciferase kit from Tropix®, according to the manufacturer's recommendations, on an EG&G Bethold MicroLumat LB96P luminometer. EC50 values were obtained using the GraphPad Prism™ program. […] Accordingly, the compounds of the present invention should find considerable therapeutic applications for hypercholesterolemia and hyperlipidemia.
Background: Reporter assays use an easily measured gene product as a stand-in for the process of interest.

A further series concerns the target T2, hPPARα chimeric receptor (Homo sapiens, UniProt Q07869).
T2 construct: "expression plasmids encoding hPPARα, hPPARβ or mPPARγ chimeric receptors"
T2 sequence (Q07869 200-468 limits assumed): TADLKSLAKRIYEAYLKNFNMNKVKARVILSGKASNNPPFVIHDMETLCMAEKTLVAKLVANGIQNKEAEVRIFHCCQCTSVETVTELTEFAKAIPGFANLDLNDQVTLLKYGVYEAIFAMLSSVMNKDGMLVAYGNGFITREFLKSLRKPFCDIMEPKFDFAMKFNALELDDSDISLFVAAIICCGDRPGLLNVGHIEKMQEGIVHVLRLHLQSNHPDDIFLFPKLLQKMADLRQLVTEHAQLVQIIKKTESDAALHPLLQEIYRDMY
The series can be described thus: Transient transfections assay using the HepG2 hepatoma cell line (Gal4-PPAR chimeric receptor, luciferase reporter), hPPARα. It counts as cell-based. The following applies: HepG2 cells transiently transfected, 24 hours incubation, read-out: Hep G2-hα EC50. On the procedure: as §1, §2

With `Cc1nc(-c2ccc(C(F)(F)F)cc2)sc1CSc1ccc(OCC(=O)O)c2c1OCCC2` [Example 1, {8-[4-Methyl-2-(4-trifluoromethyl-phenyl)-thiazol-5-ylmethylsulfanyl]-chroman-5-yloxy}-acetic acid], the concentration for a half-maximal effect (EC50) at hPPARβ chimeric receptor was 187 nM.
Regarding `Cc1nc(-c2ccc(C(F)(F)F)cc2)sc1CSc1ccc(OCC(=O)O)c2c1CCCC2` [Example 2, {4-[4-Methyl-2-(4-trifluoromethyl-phenyl)-thiazol-5-ylmethylsulfanyl]-5,6,7,8-tetrahydro-naphthalen-1-yloxy}-acetic acid], the melting point is 166 to 167 °C. Further, at hPPARα chimeric receptor, the EC50 turned out to be 2970 nM. Besides, the EC50 at hPPARβ chimeric receptor is 52 nM.
`Cc1nc(-c2ccc(C(F)(F)F)cc2)sc1CSc1ccc(OCC(=O)O)c2ccccc12` [Example 3, {4-[4-Methyl-2-(4-trifluoromethyl-phenyl)-thiazol-5-ylmethylsulfanyl]-naphthalen-1-yloxy}-acetic acid]: the melting point is 181 to 183 °C. In addition, the EC50 at hPPARα chimeric receptor was 3580 nM. The concentration for a half-maximal effect (EC50) at hPPARβ chimeric receptor was 76 nM.
For `Cc1cc(SCc2sc(-c3ccc(C(F)(F)F)cc3)nc2C)c2c(c1OCC(=O)O)CCCO2` [Example 4, 2-[6-methyl-8-({4-methyl-2-[4-(trifluoromethyl)phenyl](1,3-thiazol-5-yl)}methylthio)chroman-5-yloxy]acetic acid] the same measures were 203.5 to 205.5 °C, 1760 nM and 45 nM.
On to `Cc1cc(SCc2sc(-c3ccc(C(F)(F)F)cc3)nc2C)c2c(c1OCC(=O)O)CCO2` [Example 5, 2-[5-methyl-7-({4-methyl-2-[4-(trifluoromethyl)phenyl](1,3-thiazol-5-yl)}methylthio)-2,3-dihydrobenzo[b]furan-4-yloxy]acetic acid], for which the melting point is 157 to 158 °C. Moreover, at hPPARα chimeric receptor, the 50% effective concentration (EC50) is 52 nM. The EC50 at hPPARβ chimeric receptor turned out to be 0.8 nM.
As for `Cc1cc(SCc2sc(-c3ccc(C(F)(F)F)cc3)nc2C)c2c(c1OCC(=O)O)CCC2` [Example 6, {5-Methyl-7-[4-methyl-2-(4-trifluoromethyl-phenyl)-thiazol-5-ylmethylsulfanyl]-indan-4-yloxy}-acetic acid], the melting point came to 184 °C. In addition, at hPPARα chimeric receptor, the concentration giving a half-maximal response (EC50) came out at 191 nM. Also, the EC50 at hPPARβ chimeric receptor is 133 nM.

For orientation: EC50 means the concentration giving half of the maximal effect. The term melting point denotes the temperature, or range, at which the solid turns liquid.
